Data from ChEMBL document CHEMBL4400515, “Anti-parasitic activity of polyether ionophores” (Eur J Med Chem, 2019).
Values after ≈ are worked out from the molar mass of the structure shown.

How the values were obtained:
Trypanosoma brucei [1] = assay: Antitrypanosomal activity against bloodstream form of Trypanosoma brucei clone 427-221a measured after 72 hrs by microscopic analysis; assay type: functional
Trypanosoma brucei [2] = assay: Antitrypanosomal activity against bloodstream form of Trypanosoma brucei clone 427-221a measured after 72 hrs by resazurin dye based assay; assay type: functional
Plasmodium falciparum [3] = assay: Antimalarial activity against Plasmodium falciparum Nigerian infected in human red blood cells after 48 hrs by [3H]-hypoxanthine incorporation assay; assay type: functional, organism-based
Plasmodium chabaudi = assay: Antiplasmodial activity against Plasmodium chabaudi infected in Swiss mouse assessed as reduction in parasitemia administered twice daily via ip for 4 days starting from 1.5 hrs post infection; assay type: functional
Plasmodium berghei = assay: Antimalarial activity against Plasmodium berghei infected in po dosed mouse; assay type: functional
Plasmodium falciparum [4] = assay: Antiplasmodial activity against trophozoite stage of Plasmodium falciparum 3D7 measured after 48 hrs by [3H]-hypoxanthine incorporation assay; assay type: functional, organism-based
Cryptosporidium parvum [5] = assay: Antiparasitic activity against Cryptosporidium parvum infected in CB.17 SCID mouse assessed as faecal parasite load at 3 mg/kg, administered once daily for 3 days by OW50-FITC staining based flow cytometry relative to control; assay type: functional
[6] = tested on: Plasmodium vinckei petteri; assay: Antimalarial activity against Plasmodium vinckei petteri infected in IOPS OF1 mouse assessed as reduction in parasitemia at 10 mg/kg, sc administered once daily for 4 days relative to control; assay type: functional; set-up: scale not given: the % may be the effect or the level left
Leishmania major [7] = assay: Antileishmanial activity against […] measured after 48 hrs by luminometry; assay type: functional, organism-based
Leishmania major [8] = assay: Antileishmanial activity against promastigote stage of Leishmania major MHOM/IL/81/Friedlin transformed from lymph node cultures of infected Balb/c mouse measured after 48 hrs by luminometry; assay type: functional, organism-based
Toxoplasma gondii = assay: Antiparasitic activity against Toxoplasma gondii infected in Scottish Blackface ewes assessed as mortality at 16.8 to 27.9 mg administered daily for 10 days prior to parasitic infection (reference value: 55.2%); assay type: functional
Leishmania donovani [9] = assay: Antileishmanial activity against Leishmania donovani MHOM/SD/001S-2D […] measured after 48 hrs by CellTiter-Glo luminescent cell viability assay; assay type: functional, organism-based
Leishmania donovani [10] = assay: Antileishmanial activity against Leishmania donovani MHOM/SD/001S-2D promastigotes transformed from splenic cultures of infected Chester Beatty hamster measured after 48 hrs by CellTiter-Glo luminescent cell viability assay; assay type: functional, organism-based
Cryptosporidium parvum [11] = assay: Antiparasitic activity against Cryptosporidium parvum GP-60 subtype 2a A15G2RI infected in human HCT8 cells assessed as inhibition of parasite development at 0.144 uM measured 27 hrs post infection by qPCR analysis; assay type: functional; settings: HCT-8, 27 h
[12] = tested on: Plasmodium vinckei petteri; assay: Antimalarial activity against Plasmodium vinckei petteri infected in IOPS OF1 mouse assessed as reduction in parasitemia administered once daily via sc for 4 days; assay type: functional; settings: 96 h
Eimeria tenella = assay: Coccidiostat activity against Eimeria tenella infected in po dosed chicken; assay type: functional
Leishmania donovani [13] = assay: Antileishmanial activity against Leishmania donovani MHOM/SD/00/1S-2D promastigotes by luminescence assay; assay type: functional, organism-based
Schistosoma mansoni = assay: Antiparasitic activity against Schistosoma mansoni Puerto Rico PR-1 after 48 hrs by fluorescence based lactate release assay; assay type: functional, organism-based; settings: Puerto Rico PR-1, 48 h

Compound `CCCCNC(=O)[C@H](CC)[C@H]1CC[C@H](C)[C@H]([C@@H](C)[C@H](O)[C@H](C)C(=O)[C@H](CC)[C@H]2O[C@]3(C=C[C@@H](O)[C@]4(CC[C@@](C)([C@H]5CC[C@](O)(CC)[C@H](C)O5)O4)O3)[C@H](C)C[C@@H]2C)O1` has a GI50 (Trypanosoma brucei [1]) of 40 nM and an MIC (Trypanosoma brucei [2]) of 0.1 µM (≈ 0.0806 µg/mL).

With `CC[C@@H](C(=O)[C@@H](C)[C@@H](O)[C@H](C)[C@@H]1O[C@@H]([C@@H](CC)C(=O)OCC(F)(F)F)CC[C@@H]1C)[C@H]1O[C@]2(C=C[C@@H](O)[C@]3(CC[C@@](C)([C@H]4CC[C@](O)(CC)[C@H](C)O4)O3)O2)[C@H](C)C[C@@H]1C` the GI50 (Trypanosoma brucei [1]) was 57 nM and the MIC (Trypanosoma brucei [2]) was 0.1 to 1 µM (≈ 0.0833 to 0.833 µg/mL).

Work on `CC[C@@H](C(=O)[C@@H](C)[C@@H](O)[C@H](C)CCc1c(Br)cc(C)c(O)c1C(=O)[O-])[C@H]1O[C@](CC)([C@H]2CC[C@](O)(CC)[C@H](C)O2)C[C@@H]1C.[Na+]` yielded an IC50 (Plasmodium falciparum [3]) of 0.069 µg/mL and an ED50 (Plasmodium chabaudi) of 1.4 mg/kg.

For `CC[C@@]1([C@@H]2O[C@@H]([C@H]3O[C@@](O)(COC(=O)Nc4ccc(Oc5ccccc5)cc4)[C@H](C)C[C@@H]3C)C[C@@H]2C)CC[C@H]([C@]2(C)CC[C@]3(C[C@H](O)[C@@H](C)[C@@H]([C@@H](C)[C@@H](OC)[C@@H](C)C(=O)[O-])O3)O2)O1.[Na+]`, the ED50 (Plasmodium berghei) was 8 mg/kg.

`CC[C@@]1([C@@H]2O[C@@H]([C@H]3O[C@@](O)(COS(=O)(=O)c4ccc(C)cc4)[C@H](C)C[C@@H]3C)C[C@@H]2C)CC[C@H]([C@]2(C)CC[C@]3(C[C@H](O)[C@@H](C)[C@@H]([C@@H](C)[C@@H](OC)[C@@H](C)C(=O)O)O3)O2)O1` was tested, and the ED50 (Plasmodium berghei) was 1.25 mg/kg.

In the case of `CO[C@@H]1[C@@H](OC)[C@H](C)[C@@](O)(CC(=O)O)O[C@H]1[C@H](C)[C@H]1O[C@@]2(CC[C@@](C)([C@H]3CC[C@@](C)([C@@H]4O[C@@H]([C@H]5O[C@](C)(O)[C@H](C)C[C@@H]5C)C[C@@H]4O[C@@H]4C[C@@H](OC)[C@@H](OC)[C@H](C)O4)O3)O2)C[C@H](O)[C@H]1C`, the EC50 (Plasmodium falciparum [4]) is reported as 0.44 nM and the Activity (Cryptosporidium parvum [5]) is reported as 96%.

For `CC[C@@]1([C@@H]2O[C@@H]([C@H]3O[C@@](O)(CO)[C@H](C)C[C@@H]3C)C[C@@H]2C)CC[C@H]([C@]2(C)CC[C@]3(C[C@H](O)[C@@H](C)[C@@H]([C@@H](C)[C@@H](OC)[C@@H](C)C(=O)O)O3)O2)O1`, the Activity [6] was 100%, the EC50 (Leishmania major [7]) was 380 nM and the EC50 (Leishmania major [8]) was 90 nM. It also gave an Activity (Toxoplasma gondii) of 16.7%, an EC50 (Leishmania donovani [9]) of 230 nM and an EC50 (Leishmania donovani [10]) of 850 nM. For the same compound, the inhibition at 0.144 µM (Cryptosporidium parvum [11]) was 98%, the ED50 [12] was 1.1 mg/kg and the ED90 [12] was 3.5 mg/kg.

With `CC[C@@]1([C@@H]2O[C@@H]([C@H]3O[C@@](O)(COC(=O)Nc4ccc(F)cc4)[C@H](C)C[C@@H]3C)C[C@@H]2C)CC[C@H]([C@]2(C)CC[C@]3(C[C@H](O)[C@@H](C)[C@@H]([C@@H](C)[C@@H](OC)[C@@H](C)C(=O)[O-])O3)O2)O1.[Na+]` the ED50 (Eimeria tenella) was 70 ppm.

`CC[C@@]1([C@@H]2O[C@@H]([C@H]3O[C@@](O)(COC(=O)NCCc4ccccc4)[C@H](C)C[C@@H]3C)C[C@@H]2C)CC[C@H]([C@]2(C)CC[C@]3(C[C@H](O)[C@@H](C)[C@@H]([C@@H](C)[C@@H](OC)[C@@H](C)C(=O)[O-])O3)O2)O1.[Na+]` showed an ED50 (Eimeria tenella) of 50 ppm.

For `CC[C@@]1([C@@H]2O[C@@H]([C@H]3O[C@@](O)(COC(=O)Nc4ccc(I)cc4)[C@H](C)C[C@@H]3C)C[C@@H]2C)CC[C@H]([C@]2(C)CC[C@]3(C[C@H](O)[C@@H](C)[C@@H]([C@@H](C)[C@@H](OC)[C@@H](C)C(=O)[O-])O3)O2)O1.[Na+]`, the ED50 (Plasmodium berghei) was 5 mg/kg.

`CC[C@@]1([C@@H]2O[C@@H]([C@H]3O[C@@](O)(COC(=O)Nc4ccc(Br)cc4)[C@H](C)C[C@@H]3C)C[C@@H]2C)CC[C@H]([C@]2(C)CC[C@]3(C[C@H](O)[C@@H](C)[C@@H]([C@@H](C)[C@@H](OC)[C@@H](C)C(=O)[O-])O3)O2)O1.[Na+]` gave an ED50 (Plasmodium berghei) of 16 mg/kg.

With `CC[C@@]1([C@@H]2O[C@@H]([C@H]3O[C@@]4(COC(=O)O4)[C@H](C)C[C@@H]3C)C[C@@H]2C)CC[C@H]([C@]2(C)CC[C@]3(C[C@H](O)[C@@H](C)[C@@H]([C@@H](C)[C@@H](OC)[C@@H](C)C(=O)O)O3)O2)O1` the ED50 (Plasmodium berghei) was 0.75 mg/kg.

Work on `CC[C@@]1([C@@H]2O[C@@H]([C@H]3O[C@@](O)(COC(=O)Nc4ccccc4)[C@H](C)C[C@@H]3C)C[C@@H]2C)CC[C@H]([C@]2(C)CC[C@]3(C[C@H](O)[C@@H](C)[C@@H]([C@@H](C)[C@@H](OC)[C@@H](C)C(=O)[O-])O3)O2)O1.[Na+]` yielded an ED50 (Plasmodium berghei) of 4 mg/kg.

Compound `CC[C@@]1([C@@H]2O[C@@H]([C@H]3O[C@@](O)(COC(=O)Nc4ccc(C)cc4)[C@H](C)C[C@@H]3C)C[C@@H]2C)CC[C@H]([C@]2(C)CC[C@]3(C[C@H](O)[C@@H](C)[C@@H]([C@@H](C)[C@@H](OC)[C@@H](C)C(=O)[O-])O3)O2)O1.[Na+]` has an ED50 (Eimeria tenella) of 70 ppm.

Compound `CC[C@@]1([C@@H]2O[C@@H]([C@H]3O[C@@](O)(COC(=O)Nc4ccc(Cl)cc4)[C@H](C)C[C@@H]3C)C[C@@H]2C)CC[C@H]([C@]2(C)CC[C@]3(C[C@H](O)[C@@H](C)[C@@H]([C@@H](C)[C@@H](OC)[C@@H](C)C(=O)[O-])O3)O2)O1.[Na+]` has an ED50 (Plasmodium berghei) of 2 mg/kg.

Work on `CC[C@@]1([C@@H]2O[C@@H]([C@H]3O[C@@](O)(COC(=O)Nc4ccc([N+](=O)[O-])cc4)[C@H](C)C[C@@H]3C)C[C@@H]2C)CC[C@H]([C@]2(C)CC[C@]3(C[C@H](O)[C@@H](C)[C@@H]([C@@H](C)[C@@H](OC)[C@@H](C)C(=O)[O-])O3)O2)O1.[Na+]` yielded an ED50 (Plasmodium berghei) of 5 mg/kg.

Compound `CC[C@@H](C(=O)O)[C@@H]1O[C@@H]([C@@H](C)[C@H](O)[C@H](C)C(=O)[C@H](CC)[C@H]2O[C@]3(C=C[C@@H](O)[C@]4(CC[C@@](C)([C@H]5CC[C@](O)(CC)[C@H](C)O5)O4)O3)[C@H](C)C[C@@H]2C)[C@@H](C)C[C@@H]1C` [NARASIN] has an EC50 (Leishmania donovani [13]) of 2 µM.

In the case of `CO[C@@H]1C[C@@H](C[C@H]2CC[C@H](C)[C@H]([C@@H](C)C(=O)O)O2)O[C@]2(O[C@](C)([C@H]3CC[C@@](C)([C@@H]4O[C@@H]([C@H]5O[C@@](O)(CO)[C@H](C)C[C@@H]5C)C[C@@H]4C)O3)C[C@H]2C)[C@@H]1C` [NIGERICIN], the ED50 [12] is reported as 1.8 mg/kg and the ED90 [12] is reported as 4.6 mg/kg.

With `CC[C@@H](C(=O)[C@@H](C)[C@@H](O)[C@H](C)[C@@H]1O[C@@H]([C@@H](CC)C(=O)O)CC[C@@H]1C)[C@H]1O[C@]2(C=C[C@@H](O)[C@]3(CC[C@@](C)([C@H]4CC[C@](O)(CC)[C@H](C)O4)O3)O2)[C@H](C)C[C@@H]1C` [SALINOMYCIN] the EC50 (Leishmania donovani [13]) was 4 µM and the IC50 (Schistosoma mansoni) was 32.6 µM.
